Reference: patent US7087809B2, “Natural herbicide resistance in wheat” (Natural Genes, Inc., priority 2003, dated 2006)

Columns and labels:
Type in all cases: in vivo, Triticum aestivum
[1] = tested on: hard red spring wheat populations (W1 through W15); assay: Soaking of wheat seeds in glyphosate herbicide solution, planting in herbicide-treated growing medium, count of surviving plants; settings: for Surviving plants after seed treatment: seed soaking and planting; for Number of Surviving Wheat Plants: approx. 5,000 seeds
Procedure: Preferably the wheat seeds are soaked in an aqueous solution of the herbicide. Commonly the herbicide is present in the solution in a concentration of approximately 1.5 to 6 percent by weight, and most preferably in a concentration of approximately 2 percent by weight. Commonly the wheat seeds are simply immersed in the liquid comprising the herbicide. The soaking of wheat seeds is conducted for a period of time that is sufficient for the herbicide to reach the embryos of the wheat seeds. […] The liquid comprising the herbicide can be simply provided at room temperature when the wheat seeds are in contact with the liquid and are undergoing such soaking.
Alternatively, such screening of the resulting wheat plants for herbicide resistance can include the presence of the herbicide in the growing medium where the resulting seeds are planted. Good results are obtained in a preferred embodiment when one gallon of a solution containing the herbicide in a concentration of approximately 1.5 to 6 percent by weight is added to each 4 gallons of soil. The presence of the herbicide in the soil helps to assure that an atypical wheat seed having a harder seed coat has not given a false indication of herbicide resistance by its survival up to the point of germination.
Some varieties have produced no surviving plants in tests to date. Some varieties have produced up to approximately 4 surviving plant per 5,000 seeds, others approximately 1 surviving plant per 5,000 seeds. The herbicide resistance of the resulting plants can be further confirmed by another contact (e.g., spraying) with the glyphosate herbicide.
Fifteen different known and publically available hard red spring wheat populations (W1 through W15) were chosen for evaluation and screening in accordance with the process of the present invention. Each of the starting materials was believed to lack herbicide resistance that is attributable to genetic engineering. Also, each population, as all other Triticum aestivium varieties, was regarded to be highly sensitive to glyphosate herbicide during previous observations.
Individual batches of each wheat population were initially immersed and were soaked in 2 percent aqueous solutions of glyphosate herbicide that were present at room temperature. The wheat seeds were provided in contact with the glyphosate herbicide for a period of 6 hours during which time the glyphosate herbicide reached the embryos of the seeds.
Each wheat seed population was labeled and next was planted in a 50/50 sandy-loam top soil/peat growing medium. The wheat seeds were present in flats containing the growing medium at a depth of approximately 2 inches. The same 2 percent by weight aqueous solutions of glyphosate herbicide were poured into each growing medium containing the wheat seeds.
The flats containing the wheat seeds next were placed in a greenhouse under ambient conditions in an effort to achieve germination. The sandy-loam top soil/peat growing medium was periodically watered in an effort to achieve near field growing conditions except for the presence of glyphosate herbicide.
Of those that did germinate some died within the first 2 days, and only 6 of the 15 wheat populations produced any plants following the soaking in the glyphosate herbicide as reported in Table I. These 6 populations were W1 to W5 and W15. Each plant was carefully preserved and tagged in order to preserve the lineage for those that survived the exposure to the glyphosate herbicide at the seed stage.

[2] = tested on: wheat plants of the 64 flats (progeny of surviving plants); assay: Spraying of progeny seedlings of surviving plants with glyphosate herbicide at the three-leaf stage in the greenhouse; settings: 1.2 percent aqueous solution sprayed at three-leaf stage
Text: Fifteen seeds from each head of each surviving plant were next planted in 64 individual flats in a greenhouse containing a like 50/50 sandy-loam top soil/peat growing medium. A designation system was adopted which began with the initial Wheat Population Designation (e.g., W1) next followed by the plant number (e.g., −1, −2 for W1), and finally followed by the head number (e.g., h1). The wheat plants of the 64 flats were identified as follows:
The seeds were encouraged to germinate and wheat plants emerged. At the three-leaf stage a 1.2 percent aqueous solution of glyphosate herbicide was applied to the plants by spraying. […] Remnant seeds from these 2 plants taken from heads W2-1-h10 and W2-4-h9 were planted in the greenhouse, germinated, and underwent self-pollination to increase the seeds. Plants derived from these seeds were not subjected to the glyphosate herbicide in an effort to maximize yield and to establish a germplasm base for further testing. W2-1-h10 produced six healthy plants that were designated W2-1-h10-p1-1a through -6a. The “a” designation served to specify that the generation was not treated with glyphosate herbicide. Similarly, W2-4-h9 produced 10 plants that were designated W2-4-h9-p1-1a through 10a. All plants were allowed to mature, to undergo self-pollination, and to produce seed heads. Each head was tagged to maintain a clear record of lineage. […]

[3] = tested on: wheat selections of 'WA7824'/'Zeke' pedigree; assay: Glyphosate herbicide treatment of selections grown in greenhouse flats (after field head row treatment); settings: 1.2 percent by weight aqueous solution sprayed at three-leaf stage; for Number Killed by Glyphosate Herbicide Treatment / Number of Survivors of Glyphosate Herbicide Treatment: greenhouse flats
Text: The wheat seedlings arising from the germination of this planting were allowed to establish and grow to the three-leaf stage. At this stage of growth glyphosate herbicide was applied to the plants at a rate of 32 oz. per Acre. Survivors of this treatment were allowed to mature, to undergo self-pollination, and the heads from each plant were tagged, removed, and placed in individual containers to ensure a record of continuous lineage from the plants used in the increase (i.e., W2-1-h10-p1-la through 6a and W2-4-h9-p1-la through 10a). Seeds from each head removed from the surviving plants that were exposed to glyphosate herbicide in the field head row plots next were planted in flats in the greenhouse for germination and seedling establishment. The seeds from each head were planted in separate flats to maintain the integrity of each line. At the three-leaf stage, the resulting seedlings were sprayed with an aqueous 1.2 percent by weight solution of glyphosate herbicide. Surviving plants were allowed to grow to maturity, to undergo self-pollination, and to produce heads and seeds. This was done to ensure that the survivors of the glyphosate herbicide treatment also remained fertile and produced viable seeds.

`O=C(O)CNCP(=O)(O)O` [glyphosate herbicide, N-(phosphonomethyl)glycine] was tested, and the “Germination of glyphosate herbicide-treated seeds” value ([1]; approx. 75,000 seeds of 15 populations, 2 percent aqueous glyphosate, 6 hours soak, observed 10 to 15 days) was “failed to germinate”, the “Surviving plants after seed treatment” value ([1]; other varieties) was “approximately 1 surviving plant per 5,000 seeds” and the “Number of wheat populations (of 15) that produced any plants following the soaking” value ([1]; populations W1 through W15, 2 percent aqueous glyphosate, 6 hours soak) was 6. The “Surviving plants after seed treatment” value ([1]; some varieties) was ≤ 4 surviving plant per 5,000 seeds, the “Number of Surviving Wheat Plants” value ([1]; wheat population W1 ('ID377'/'WestBred 926'), 2 percent aqueous glyphosate, 6 hours soak, same solution in growing medium) was 4 and the “Number of Surviving Wheat Plants” value ([1]; wheat population W2 ('WA7824'/'Zeke'), 2 percent aqueous glyphosate, 6 hours soak, same solution in growing medium) was 5. The “Number of Surviving Wheat Plants” value ([1]; wheat population W3 ('SLW97606'/'WestBred 926'), 2 percent aqueous glyphosate, 6 hours soak) was 1, the “Number of Surviving Wheat Plants” value ([1]; wheat population W4 ('SLW97606'/'WestBred 936'), 2 percent aqueous glyphosate, 6 hours soak) was 2 and the “Number of Surviving Wheat Plants” value ([1]; wheat population W5 ('SLW97606'/'Zeke'), 2 percent aqueous glyphosate, 6 hours soak) was 1. For the same compound, the “Number of Surviving Wheat Plants” value ([1]; wheat population W6 ('BZ692-108b'/'Calorwa'), 2 percent aqueous glyphosate, 6 hours soak) was 0, the “Number of Surviving Wheat Plants” value ([1]; wheat population W7 ('BZ966-472w'/'Pristine'), 2 percent aqueous glyphosate, 6 hours soak) was 0 and the “Number of Surviving Wheat Plants” value ([1]; wheat population W8 ('Hank'/'BZ994-484'), 2 percent aqueous glyphosate, 6 hours soak) was 0. The “Number of Surviving Wheat Plants” value ([1]; wheat population W9 ('MT9959'/'Hank'), 2 percent aqueous glyphosate, 6 hours soak) was 0, the “Number of Surviving Wheat Plants” value ([1]; wheat population W10 ('McNeal'/'Parshall'), 2 percent aqueous glyphosate, 6 hours soak) was 0 and the “Number of Surviving Wheat Plants” value ([1]; wheat population W11 ('Reeder'/'Conan'), 2 percent aqueous glyphosate, 6 hours soak) was 0. The “Number of Surviving Wheat Plants” value ([1]; wheat population W12 ('WA7899'/'Jefferson'), 2 percent aqueous glyphosate, 6 hours soak) was 0, the “Number of Surviving Wheat Plants” value ([1]; wheat population W13 ('Alpowa'/'Zak'), 2 percent aqueous glyphosate, 6 hours soak) was 0 and the “Number of Surviving Wheat Plants” value ([1]; wheat population W14 ('Vanna'/'Zak'), 2 percent aqueous glyphosate, 6 hours soak) was 0. For the same compound, the “Number of Surviving Wheat Plants” value ([1]; wheat population W15 ('Zak'/'BZ698-41'), 2 percent aqueous glyphosate, 6 hours soak) was 4, the “Seedlings surviving the application of glyphosate herbicide” value ([2]; seedlings derived from W1-2) was “single seedling” and the “Seedlings surviving the application of glyphosate herbicide” value ([2]; seedlings derived from W2-4) was “single seedling”. The “Tolerance of plants of the selections to the herbicide” value ([3]; all selections from field head rows) was “All selections generated plants that were tolerant to the herbicide”, the “Number Killed by Glyphosate Herbicide Treatment” value (“Number Killed” below) ([3]; selection W2-1-h10-p16a-h2-h1) was 0 and the “Number of Survivors of Glyphosate Herbicide Treatment” value ([3]; selection W2-1-h10-p16a-h2-h1) was 10. For the same compound, the “Number Killed” value ([3]; selection W2-1-h10-p16a-h2-h5) was 0, the “Number of Survivors of Glyphosate Herbicide Treatment” value ([3]; selection W2-1-h10-p16a-h2-h5) was 15 and the “Number Killed” value ([3]; selection W2-4-h9-p13a-h2-h17) was 0. The “Number of Survivors of Glyphosate Herbicide Treatment” value ([3]; selection W2-4-h9-p13a-h2-h17) was 3, the “Number Killed” value ([3]; selection W2-4-h9-p13a-h2-h18) was 0 and the “Number of Survivors of Glyphosate Herbicide Treatment” value ([3]; selection W2-4-h9-p13a-h2-h18) was 5.
